Measurements published in patent publication USRE30241E, “Esters of 3-(hydroxy or hydroxymethyl)-4-hydroxyphenyl aminomethyl ketones” (Sterling Drug Inc., priority 1970, dated 1980).
Like-named read-outs stand apart in the source and are kept apart here.

Experiments:
[1] = test system: carbachol- or histamine-induced bronchoconstriction; experiment: Bronchodilator Test Method I, anesthetized dog, intravenous activity; format: in vivo; settings: Canis lupus familiaris, read-out: Bronchodilatation; for inhibition in vivo at 0.0028 mg/kg: 2.8 mcg/kg i.v.; for inhibition in vivo at 0.0056 mg/kg: 5.6 mcg/kg i.v.; for inhibition in vivo at 0.068 mg/kg: 68 mcg/kg i.v.; for inhibition in vivo at 0.137 mg/kg: 137 mcg/kg i.v.; for inhibition in vivo at 0.274 mg/kg: 274 mcg/kg i.v.; for inhibition in vivo at 0.0012 mg/kg: 1.2 mcg/kg i.v.; for inhibition in vivo at 0.006 mg/kg: 6.0 mcg/kg i.v.; for inhibition in vivo at 0.025 mg/kg: 25 mcg/kg i.v.; for inhibition in vivo at 0.03 mg/kg: 30 mcg/kg i.v.; for inhibition in vivo at 0.24 mg/kg: 240 mcg/kg i.v.
Experimental: Bronchodilator activity was tested in anesthetized dogs (Test Method I) and in vitro on the perfused guinea pig lung (Test Method II), using the following pharmacological test procedures
(§1) Male and female dogs weighing 9-18 kg. each were anesthetized with pentobarbital sodium (30 mg./kg. i.v.). Each animal, with thorax opened at the midsternum, was maintained under artificial ventilation using a constant volume pump (250 ml./stroke; 10 to 12 strokes per minute) attached to the tracheal cannula. The flow of air was controlled by a glass or plastic valve which closed and opened respectively on inflow and outflow of the air to and from the tracheal cannula. Bronchoconstriction and/or bronchodilatation were measured from changes in the basal airway pressure reflected by a transducer attached to the sidearm of the cannula relayed to a polygraph.
(§2) Control bronchoconstrictions were induced by intravenous injections of carbachol (choline chloride carbamate) in doses ranging from 4 to 6 micrograms per kilogram or histamine diphosphate in doses ranging from 35 to 45 micrograms per kilogram.
Solutions of the test compounds were prepared in distilled water or in saline (for infusion). […] These solutions were then tested for bronchodilator activity in three ways, viz. (1) by mixing a graded dose of test compound with the constant does of carbachol or histamine in a syringe and injecting the mixture into the femoral vein of the dog, (2) by producing the bronchoconstriction first and injecting the test compound at the time of maximum constriction, and (3) by injecting the test compound first followed by carbachol or histamine in 1-10 minutes. Injections were repeated at 20-30 minutes. Bronchodilator values were obtained by measuring the areas under the response polygraph tracings (the first 5 munite period) of carbachol or histamine controls and of the experimentals using a planimeter. Decrease in the area thus measured was expressed as a percent bronchodilatation in reference to the area of control carbachol or histamine constriction. The mean bronchodilatations (the reductions in constrictions) were plotted against the doses administered and the mean effective dose (ED50) was estimated in micrograms/kilogram from the does-response curves. Blood pressure recording was taken from the femoral artery using an arterial transducer relayed to a polygraph.

[2] = test system: guinea pig bronchioles constricted by carbachol; experiment: Bronchodilator Test Method II, in vitro perfused guinea pig lung
Experimental: In this method bronchodilator activity in vitro was determined by testing the effect of graded doses of the test compounds on guinea pig bronchioles constricted by carbachol, using the technique reported by Sollman and von Oettingen, Proc. Soc, Exp. Biol. Med., 25,692 (1928) as modified by Tainter, Pedden, and James, J. Pharm. Exp. Ther., 51, 371 (1934) and by Luduena, von Euler, Tullar, and Lands, Arch. intern. Pharmacol., III, 392 (1957).

[3] = test system: carbachol- or histamine-induced bronchoconstriction; experiment: Bronchodilator Test Method I, anesthetized dog, intraduodenal activity; format: in vivo; settings: Canis lupus familiaris, read-out: Bronchodilation; for inhibition in vivo at 0.068 mg/kg: 68 mcg/kg (salt) intraduodenal; for inhibition in vivo at 0.136 mg/kg: 136 mcg/kg (salt) intraduodenal
Experimental: as §1
as §2, with “kilogram. In the majority of test animals, the above doses of constrictor agents produced a 100-200 percent increase in the normal airway pressure or amplitude.” for “kilogram.”
Injections were repeated at 20-30 minutes.
In intraduodenal studies, in the dog prepared for bronchodilation measurements, the duodenal segment of the small intestine was made easily accessible through a small mid-line incision in the abdomen. The test solution was injected into the duodenum using a fine needle. Commencing 5 minutes after medication, the degree and duration of bronchodilation were tested by injecting a control dose of carbachol or histamine at intervals of 30-60 minutes until the recovery or near-recovery was apparent. In some dogs showing an early recovery, a reference drug was also tested in the same dog 1.5-2 hours after the first medicine.

CC(C)(C)NCC(O)c1ccc(OC(=O)C2(C)CC2)c(OC(=O)C2(C)CC2)c1.Cl (stereo not drawn) [Example 13, 3,4-bis(1-methylcyclopropanecarbonyloxy)-alpha-(tert-butylaminomethyl)benzyl alcohol hydrochloride]
inhibition in vivo at 0.0028 mg/kg ([1]; 2 min, 2 min): 52%
inhibition in vivo at 0.0056 mg/kg ([1]; 2 min, 2 min): 69%
inhibition in vivo at 0.0028 mg/kg ([1]; 0.5 h, 30 min): 48%
inhibition in vivo at 0.0056 mg/kg ([1]; 0.5 h, 30 min): 34%
inhibition in vivo at 0.0028 mg/kg ([1]; 1 h, 60 min): 0%
inhibition in vivo at 0.0056 mg/kg ([1]; 1 h, 60 min): 10%
ED50 ([2]; carbachol (Doryl) 1:5 million): 0.45 µg (base)
Duration, Mean ([2]; dose 0.79 mcg (base)): 15 ± 1.7 min

Cc1cccc(C(=O)Oc2ccc(C(O)CNC(C)(C)C)cc2OC(=O)c2cccc(C)c2)c1 (stereo not drawn) [Example 112, 3,4-bis(m-toluyloxy)-alpha-(tert-butylaminomethyl)benzyl alcohol]
inhibition in vivo at 0.068 mg/kg ([1]; 5 min, 5 min): 38%
inhibition in vivo at 0.137 mg/kg ([1]; 5 min, 5 min): 80%
inhibition in vivo at 0.274 mg/kg ([1]; 5 min, 5 min): 80%
inhibition in vivo at 0.068 mg/kg ([1]; 0.5 h, 30 min): 43%
inhibition in vivo at 0.137 mg/kg ([1]; 0.5 h, 30 min): 60%
inhibition in vivo at 0.274 mg/kg ([1]; 0.5 h, 30 min): 74%
inhibition in vivo at 0.068 mg/kg ([1]; 1 h, 60 min): 27%
inhibition in vivo at 0.137 mg/kg ([1]; 1 h, 60 min): 50%
inhibition in vivo at 0.274 mg/kg ([1]; 1 h, 60 min): 57%
inhibition in vivo at 0.137 mg/kg ([1]; 2 h, 120 min): 37%
inhibition in vivo at 0.274 mg/kg ([1]; 2 h, 120 min): 54%
inhibition in vivo at 0.137 mg/kg ([1]; 3 h, 180 min): 8%
inhibition in vivo at 0.274 mg/kg ([1]; 3 h, 180 min): 33%
inhibition in vivo at 0.274 mg/kg ([1]; 4 h, 240 min): 38%
inhibition in vivo at 0.274 mg/kg ([1]; 4.5 h, 270 min): 25%
inhibition in vivo at 0.068 mg/kg ([3]; 5 min, 5 min): 50%
inhibition in vivo at 0.136 mg/kg ([3]; 5 min, 5 min): 42%
inhibition in vivo at 0.068 mg/kg ([3]; 10 min, 10 min): 0%
inhibition in vivo at 0.136 mg/kg ([3]; 10 min, 10 min): 59%
inhibition in vivo at 0.136 mg/kg ([3]; 0.5 h, 30 min): 67%
inhibition in vivo at 0.136 mg/kg ([3]; 1 h, 60 min): 53%
inhibition in vivo at 0.136 mg/kg ([3]; 2 h, 120 min): 0%
ED50 ([2]; carbachol (Doryl) 1:5 million): 4.4 µg (base)
Duration, Mean ([2]; dose 10 mcg (base)): 104.1 ± 34.9 min

CC(=O)Oc1ccc(C(O)CNC(C)(C)C)cc1OC(=O)c1ccccc1C (stereo not drawn) [Example 147, 3-(o-toluyloxy)-4-acetoxy-alpha-(tert-butylaminomethyl)benzyl alcohol methanesulfonate]
inhibition in vivo at 0.0012 mg/kg ([1]; 5 min, 5 min): 36%
inhibition in vivo at 0.006 mg/kg ([1]; 5 min, 5 min): 77%
inhibition in vivo at 0.025 mg/kg ([1]; 5 min, 5 min): 100%
inhibition in vivo at 0.0012 mg/kg ([1]; 0.5 h, 30 min): 3%
inhibition in vivo at 0.006 mg/kg ([1]; 0.5 h, 30 min): 9%
inhibition in vivo at 0.025 mg/kg ([1]; 0.5 h, 30 min): 32%
inhibition in vivo at 0.0012 mg/kg ([1]; 1 h, 60 min): 0%
inhibition in vivo at 0.006 mg/kg ([1]; 1 h, 60 min): 0%
inhibition in vivo at 0.025 mg/kg ([1]; 1 h, 60 min): 12%
inhibition in vivo at 0.025 mg/kg ([1]; 2 h, 120 min): 4%
ED50 ([2]; Doryl conc. 1:10 million): 1.9 µg (base)
Duration, Mean ([2]; dose 5 mcg (base), Doryl conc. 1:10 million): 15.9 ± 3.3 min

CCC(NC1CCCC1)C(O)c1ccc(OC(=O)CC(C)C)c(OC(=O)CC(C)C)c1.Cl (stereo not drawn) [Example 138, 3,4-bis(isovaleryloxy)-alpha-[1-(cyclopentylamino)propyl]benzylalcohol hydrochloride]
inhibition in vivo at 0.03 mg/kg ([1]; 5 min, 5 min): 38%
inhibition in vivo at 0.24 mg/kg ([1]; 5 min, 5 min): 49%
inhibition in vivo at 0.03 mg/kg ([1]; 0.5 h, 30 min): 0%
inhibition in vivo at 0.24 mg/kg ([1]; 0.5 h, 30 min): 62%
inhibition in vivo at 0.24 mg/kg ([1]; 1 h, 60 min): 42%
inhibition in vivo at 0.24 mg/kg ([1]; 2 h, 120 min): 46%
ED50 ([2]; carbachol (Doryl) 1:5 million): 0.46 µg (base)
Duration, Mean ([2]; dose 1.5 mcg (base)): 25.4 ± 3.5 min
